22 molecules from patent publication US8697683B2, “Azetidinyl diamides as monoacylglycerol lipase inhibitors” (Janssen Pharmaceutica, NV, priority 2009, dated 2014) can be followed below.

Positions count from the first letter of the chain named. Like-named read-outs stand apart in the source and are kept apart here. Some results are limits rather than exact numbers.

Experiment [1] has as its system CFA-induced thermal hypersensitivity. Nature of the experiment: CFA-Induced Paw Radiant Heat Hypersensitivity. In kind it is in vivo. The note with it: rat, 30 mg/kg p.o., HPβCD vehicle; for Method 1: peak % reversal: group mean values, maximum at any time point up to 180 or 300 min. How it is done: A radiant thermal stimulus (beam of light) was then focused through the glass onto the plantar surface of each hind paw in turn. […] An initial (baseline) response latency to the thermal stimulus was recorded for each animal prior to the injection of complete Freund's adjuvant (CFA). 24 h following intraplantar CFA injection, the response latency of the animal to the thermal stimulus was then re-evaluated and compared to the animal's baseline response time. […] Immediately following the post-CFA latency assessment, the indicated test compound or vehicle was administered orally. […] More specifically: For all compounds, the % R of hypersensitivity was calculated using the mean value for groups of animals at each time point according to the following formula: % reversal=[(group treatment response−group CFA response)/(group baseline response−group CFA response)]×100 Results are given for the maximum % reversal observed for each compound at any time point tested. For some compounds, the % R of hypersensitivity was calculated separately for each animal according to the following formula: % reversal=[(individual treatment response−individual CFA response)/(individual baseline response−individual CFA response)]×100. Results are given as a mean of the maximum % reversal values calculated for each individual animal.

In experiment [2] the target is T1, purified wild type MGL (wt-MGLL 6H-11-313) (Homo sapiens, UniProt Q99685).
T1 sequence (Q99685 1-303): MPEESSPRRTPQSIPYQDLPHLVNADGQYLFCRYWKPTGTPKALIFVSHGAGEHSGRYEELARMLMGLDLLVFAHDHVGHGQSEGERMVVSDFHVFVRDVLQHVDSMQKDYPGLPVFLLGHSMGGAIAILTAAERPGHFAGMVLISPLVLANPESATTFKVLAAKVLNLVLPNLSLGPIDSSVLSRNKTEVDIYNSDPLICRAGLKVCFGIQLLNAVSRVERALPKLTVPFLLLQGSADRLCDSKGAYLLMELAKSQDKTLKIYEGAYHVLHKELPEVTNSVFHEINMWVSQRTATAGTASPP

Experiment [3] addresses T2, MGL (Rattus norvegicus, UniProt Q8R431).
T2 construct: one g rat brain was homogenized
T2 sequence (Q8R431 1-303): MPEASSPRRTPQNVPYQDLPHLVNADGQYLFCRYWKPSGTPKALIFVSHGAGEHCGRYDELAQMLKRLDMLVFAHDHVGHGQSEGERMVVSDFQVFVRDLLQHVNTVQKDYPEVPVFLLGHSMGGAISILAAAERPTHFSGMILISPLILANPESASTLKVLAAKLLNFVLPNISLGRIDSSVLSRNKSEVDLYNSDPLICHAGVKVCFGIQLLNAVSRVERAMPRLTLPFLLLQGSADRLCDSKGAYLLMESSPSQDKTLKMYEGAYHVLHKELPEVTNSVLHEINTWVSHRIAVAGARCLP
Nature of the experiment: 2-AG Accumulation Assay (rat brain homogenate). In kind it is biochemical. As to conditions: compound 1 μM, percent of vehicle 2-AG accumulation.

Experiment [4] has as its target T3, mutant MGL (Homo sapiens, UniProt Q99685, L169S/L176S).
T3 sequence (Q99685 1-303 L169S/L176S): T1 sequence (Q99685 1-303) with L169S, L176S
The experiment in a line: MGL ThermoFluor Assay-Mutant.
Protocol: The ThermoFluor (TF) assay is a 384-well plate-based binding assay that measures thermal stability of proteins^1,2. […] TF dye used in all experiments was 1,8-ANS (Invitrogen: A-47). Final TF assay conditions used for MGL studies were 0.07 mg/ml of mutant MGL, 100 μM ANS, 200 mM NaCl, 0.001% Tween-20 in 50 mM PIPES (pH=7.0).
Screening compound plates contained 100% DMSO compound solutions at a single concentration. […] Columns 12 and 24 were used as DMSO reference and contained no compound. […] Following compound dispension, protein and dye solutions were added to achieve the final assay volume of 3 μL.
Bar-coded assay plates were robotically loaded onto a thermostatically controlled PCR-type thermal block and then heated from 40 to 90° C. degrees at a ramp-rate of 1° C./min for all experiments. Fluorescence was measured by continuous illumination with UV light (Hamamatsu LC6), supplied via fiber optics and filtered through a band-pass filter (380-400 nm; >60D cutoff). Fluorescence emission of the entire 384-well plate was detected by measuring light intensity using a CCD camera (Sensys, Roper Scientific) filtered to detect 500±25 nm, resulting in simultaneous and independent readings of all 384 wells. A single image with 20-sec exposure time was collected at each temperature, and the sum of the pixel intensity in a given area of the assay plate was recorded vs temperature and fit to standard equations to yield the Tm^1. • 1.
For some experiments, quantitative NMR spectroscopy (qNMR) was used to measure concentration of the initial 100% DMSO compound solutions and, using the same fitting method, qKd values were determined

Experiment [5] has as its system tactile allodynia. The experiment in a line: Spinal Nerve Ligation (SNL) Model of Neuropathic Pain-Tactile Allodynia Test. As to conditions: L5 SNL rats, 30 mg/kg p.o., HPβCD vehicle, last time point 4 h. Format: in vivo, rat. The text has this:
For lumbar 5 (L5) spinal nerve ligation (SNL) studies, anesthesia was induced and maintained on isoflurane inhalation. Fur was clipped over the dorsal pelvic area, and a 2-cm skin incision was made just left of midline over the dorsal aspect of the L4-S2 spinal segments, followed by separation of the paraspinal muscles from spinous processes. The transverse process of L6 was then carefully removed, and the L5 spinal nerve was identified. The left L5 spinal nerve was then ligated tightly with 6-0 silk thread, the muscle was sutured with 4-0 vicryl, and the skin was closed with wound clips. Following surgery, s.c. saline (5 mL) was administered. Behavioral testing was performed four weeks post-ligation. Following baseline von Frey determinations to verify the presence of mechanical allodynia, L5 SNL rats were orally administered the indicated vehicle or drug. […] which the paw ipsilateral to the nerve ligation was withdrawn from the application of a series of calibrated von Frey filaments (0.4, 0.6, 1.0, 2.0, 4, 6, 8 and 15 g; Stoelting; Wood Dale, Ill.). Beginning at an intermediate stiffness (2.0 g), filaments were applied to the mid-plantar hind paw for approximately 5 seconds. to determine the response threshold, a brisk paw withdrawal led to the presentation of the next lighter stimulus, whereas a lack of a withdrawal response led to the presentation of the next stronger stimulus. A total of four responses after the first threshold detection were collected. The 50% withdrawal thresholds were interpolated by the method of Dixon, Efficient analysis of experimental observations. Annu. Rev. Pharmacol. […] Neurosci. […] Threshold data from von Frey filament testing were reported as withdrawal threshold in grams. Data were normalized and results are presented as % MPE (maximum possible effect) of the drug calculated according to the following formula: [formula]

Experiment [6] has as its system CFA induced paw pressure hypersensitivity. The experiment in a line: CFA-Induced Paw Pressure Hypersensitivity. In kind it is in vivo. As to conditions: rat, dose 30, s.c., HPβCD vehicle, time 1 h. As to the method:
Prior to testing, rats were acclimated to the handling procedure twice a day for a period of two days. […] The endpoint was automatically reached upon hindpaw withdrawal, and the terminal force was noted (in grams). An initial (baseline) response threshold to the mechanical stimulus was recorded for each animal prior to the injection of complete Freund's adjuvant (CFA). Forty hr following intraplantar CFA injection, the response threshold of the animal to the mechanical stimulus was re-evaluated and compared to the animal's baseline response threshold. A response was defined as a withdrawal of the hindpaw, a struggling to remove the hindpaw or vocalization. […] Immediately following the post-CFA threshold assessment, rats were administered the indicated test compound or vehicle. Post-treatment withdrawal thresholds were assessed at 1 h. Paw withdrawal thresholds were converted to percent reversal of hypersensitivity according to the following formula: % reversal=[(post treatment response−predose response)/(baseline response−predose response)]×100.

The mark [7] stands for this setting: read-out: MGL wild type inh IC50, substrate 4MU-B 10 μM, 37° C.
Setting [8] is: read-out: MGL mutant ThermoFluor Kd, ThermoFluor thermal stability binding assay.
Where [9] appears, read: read-out: MGL mutant ThermoFluor qKd (μM) (using qNMR conc.), ThermoFluor, compound concentration measured by qNMR.
[10] abbreviates: read-out: MGL wild type inh IC50, substrate 4MU-B 10 μM, enzyme 5 nM, 37° C.
Where [11] appears, read: read-out: MGL mutant ThermoFluor qKd (μM) (using qNMR conc.), compound concentration measured by quantitative NMR (qNMR).
Where [12] appears, read: read-out: MGL wild type inh IC50, 4MU-B substrate 10 μM, 37° C.
The mark [13] stands for this setting: read-out: MGL mutant ThermoFluor Kd, 0.07 mg/ml, fit of concentration-response of Tm.

For “5-[2-(4-Chlorophenyl)-1-methyl-vinyl]-1-(2,4-dichloro-phenyl)-4-methyl-1H-pyrazole-3-carboxylic acid [Cpd 1010]”, the “Method 1: peak % reversal” value in experiment [1] is 23.4%. Besides, the IC50 in experiment [2] (setting [7]) is below 5 nM. Further, in experiment [3], the “Rat Brain 2AG % VehCntrl (%) @1 μM” value turned out to be 1953%. For the same molecule, the values for the Kd in experiment [4] (setting [8]) and in experiment [4] (setting [9]) were 0.017 µM and 0.04 µM, respectively.

For `O=C(c1cscn1)N1CCN(C2CN(C(=O)c3sc4cc(C(F)(F)F)ccc4c3Cl)C2)CC1` [Cpd 335, 1-(1-{[3-Chloro-6-(trifluoromethyl)-1-benzothiophen-2-yl]carbonyl}azetidin-3-yl)-4-(1,3-thiazol-4-ylcarbonyl)piperazine], the “peak % MPE” value in experiment [5] was 50.1%.

Consider `Cc1sc(C(=O)N2CC(N3CCN(C(=O)c4nccs4)CC3)C2)cc1Br` [Cpd 745], for which, in experiment [2] (setting [10]), the 50% inhibitory concentration (IC50) was 342 nM. Besides, the Kd in experiment [4] (setting [11]) amounted to 0.283 µM.

As to `Cc1c(C(=O)N2CCN(C3CN(C(=O)c4nccs4)C3)CC2)n(C)c2ccc(Cl)cc12` [Cpd 762], the half-inhibitory concentration (IC50) in experiment [2] (setting [7]) is 632 nM. Also, the Kd in experiment [4] (setting [9]) worked out at 1 µM.

In the case of `O=C(c1ccc(Oc2cccc(Cl)c2)nc1)N1CC(N2CCN(C(=O)c3cscn3)CC2)C1` [Cpd 803], the IC50 in experiment [2] (setting [7]) came to 1870 nM. Besides, in experiment [4] (setting [8]), the Kd was 2.13 µM.

Take `O=C(c1nccs1)N1CCN(C2CN(C(=O)c3cccc4c3CN(c3ccccc3)CC4)C2)CC1` [Cpd 805]: the half-inhibitory concentration (IC50) in experiment [2] (setting [12]) stood at 2000 nM. For the same molecule, the Kd in experiment [4] (setting [13]) stood at 6.41 µM.

On to `O=C(c1cc2cc(Br)ccc2o1)N1CC(N2CCN(C(=O)c3nccs3)CC2)C1` [Cpd 812], for which the half-inhibitory concentration (IC50) in experiment [2] (setting [10]) was found to be 2190 nM. For the same molecule, the Kd in experiment [4] (setting [13]) turned out to be 0.644 µM.

Turning to `Cc1cc2nc(C(=O)N3CC(N4CCN(C(=O)c5nccs5)CC4)C3)cn2cc1Br` [Cpd 852], in experiment [2] (setting [10]), the 50% inhibitory concentration (IC50) was 8080 nM. Besides, in experiment [4] (setting [9]), the Kd is 1.98 µM.

Turning to `O=C(c1ccc(SCc2cccc(C(F)(F)F)c2)cc1)N1CC(N2CCN(C(=O)c3cscn3)CC2)C1` [Cpd 975], in experiment [2] (setting [12]), the half-inhibitory concentration (IC50) stood at 162 nM. Besides, the Kd in experiment [4] (setting [8]) stood at 2 µM.

With `O=C(c1ccc(OCc2cccc(Br)n2)cc1)N1CC(N2CCN(C(=O)C(F)(F)F)CC2)C1` [Cpd 984], the IC50 in experiment [2] (setting [12]) was 2500 nM. In addition, the Kd in experiment [4] (setting [9]) came to 1.43 µM.

Take `O=C(c1ccc(-c2cccc(C(F)(F)F)c2)c(Cl)c1)N1CC(N2CCN(C(=O)c3cscn3)CC2)C1` [Cpd 1102]: in experiment [1], the “Method 1: peak % reversal” value came to 38%. For the same molecule, in experiment [1] (mean of individual animal maximum values, up to 180 or 300 min), the “Method 2: peak % reversal” value is given as 45.3%. Moreover, the “Rat Brain 2AG % VehCntrl (%) @1 μM” value in experiment [3] is given as 878%. In addition, the Kd in experiment [4] (setting [13]) was 0.006 µM.

As for `Cn1nccc1-c1ccc2cc(C(=O)N3CC(N4CCN(C(=O)c5nccs5)CC4)C3)[nH]c2c1` [Cpd 1241], the IC50 in experiment [2] (setting [12]) worked out at 460 nM. In experiment [4] (setting [11]), the Kd was 0.638 µM.

`COc1ccc(-c2cccc(C(=O)N3CC(N4CCN(C(=O)c5cscn5)CC4)C3)c2)cc1` [Cpd 1250]: the IC50 in experiment [2] (setting [7]) amounted to 638 nM. In addition, the Kd in experiment [4] (setting [8]) was 2 µM.

Consider `O=C(c1nccs1)N1CCN(C2CN(C(=O)c3cccc4nc(-c5ccccc5)[nH]c34)C2)CC1` [Cpd 1255], for which the IC50 in experiment [2] (setting [12]) came to 769 nM. Further, the “Rat Brain 2AG % VehCntrl (%) @1 μM” value in experiment [3] is 147%. The Kd in experiment [4] (setting [13]) worked out at 0.048 µM.

Take `O=C(c1nccs1)N1CCN(C2CN(C(=O)c3nn(-c4ccc(Cl)cc4Cl)c4c3CCCC4)C2)CC1` [Cpd 1267]: the concentration for half-maximal inhibition (IC50) in experiment [2] (setting [7]) amounted to 1120 nM. Further, the Kd in experiment [4] (setting [9]) was 0.741 µM.

Regarding `O=C(c1nc2cc(-c3ccc(OC(F)(F)F)cc3)ccc2[nH]1)N1CC(N2CCN(C(=O)c3nccs3)CC2)C1` [Cpd 1303], in experiment [2] (setting [12]), the IC50 was found to be 5110 nM. For the same molecule, in experiment [4] (setting [11]), the Kd was 7.12 µM.

In the case of `O=C(c1ccc(-c2ccc(Cl)cc2)[nH]1)N1CC(N2CCN(C(=O)c3nccs3)CC2)C1` [Cpd 1307], the IC50 in experiment [2] (setting [10]) amounted to 8780 nM. For the same molecule, the Kd in experiment [4] (setting [8]) was found to be 4.21 µM.

On to `O=C(c1ccc[nH]1)N1CCN(C2CN(C(=O)c3nn(-c4ccc(Cl)cc4Cl)c4c3CCCC4)C2)CC1` [Cpd 1309], for which, in experiment [2] (setting [7]), the IC50 stood at 9360 nM. In addition, the Kd in experiment [4] (setting [9]) is 6.54 µM.

`O=C(c1ccc2c(ccn2-c2ccc(F)c(F)c2)c1)N1CC(N2CCN(C(=O)c3nccs3)CC2)C1` [Cpd 1362, 1-(3,4-Difluorophenyl)-5-({3-[4-(1,3-thiazol-2-ylcarbonyl)piperazin-1-yl]azetidin-1-yl}carbonyl)-1H-indole]: the “peak % MPE” value in experiment [5] was determined as 84.3%. The percent reversal in experiment [6] was determined as 56.7%.

As for `O=C(c1cn2cc(Cl)cc(Br)c2n1)N1CC(N2CCN(C(=O)c3nccs3)CC2)C1` [Cpd 1452], in experiment [2] (setting [10]), the IC50 was above 16700 nM. Besides, the Kd in experiment [4] (setting [11]) is 5.42 µM.

Regarding `O=C(c1nccs1)N1CCN(C2CN(C(=O)c3c[nH]nc3-c3ccccc3)C2)CC1` [Cpd 1475], in experiment [2] (setting [10]), the IC50 was above 16700 nM. Besides, in experiment [4] (setting [13]), the Kd is above 31.2 µM.

As for `O=C(c1ccccc1)N1CCN(C2CN(C(=O)c3cc4cc(Br)ccc4o3)C2)CC1` [Cpd 1492], the concentration for half-maximal inhibition (IC50) in experiment [2] (setting [10]) is above 16700 nM. Moreover, the Kd in experiment [4] (setting [13]) was determined as 18.8 µM.

The term IC50 denotes the concentration at which inhibition is half-maximal.
